According to patent US9586928B2 (The Scripps Research Institute, priority 2011, dated 2017):

How the values were obtained:
[1] = system: T regulatory cells; experiment: T regulatory cell differentiation of splenocytes (RTPCR, Foxp3 FACS); assay type: cell-based, murine
Protocol: Therefore, the environmental cues associated with the concentration of TGF[…] dictates the balance between TH17 and T regulatory cell differentiation. In light of the reciprocal relationship between these two cell types, we assessed whether SR1555 affected the development of T regulatory cells in vitro. Splenocytes were cultured under T regulatory cell polarizing conditions (TGFβ and IL-2) for 3 days. […] To determine whether the gene expression data would correlate with protein expression, we again cultured splenocytes for 5 days under T regulatory cell polarizing conditions in the presence of DMSO or SR1555 and examined the expression of Foxp3 by intracellular cytokine FACS analysis.
Splenocytes were differentiated under the following conditions: iTreg-10 μg/mL anti-IFNγ, 10 μg/mL anti-IL-4, and 2 ng/mL TGFβ (R&D Systems); 20 ug/mL anti-IFNγ, 20 ug/mL anti-IL-4, 1 ng/mL TGFβ, and 10 ng/mL IL-6 (R&D Systems) for TH17 conditions. All cultures were stimulated with 1 μg/mL anti-CD3 (eBiosciences) and 1 μg/mL anti-CD28 (eBiosciences). Four to five days after activation, all cells were restimulated with 5 ng/mL phorbol-12-myristate-13-acetate (PMA) (Sigma) and 500 ng/mL ionomycin (Sigma) for 2 hours with the addition of GolgiStop (BD Bioscience) for an additional 2 hours before intracellular staining. Cells were cultured in RPMI 1640 medium (Invitrogen) with 10% FBS and antibiotics.
RNA extraction and QRT-PCR analysis was performed as previously described.

[2] = target: T1, FXR (Homo sapiens, UniProt Q96RI1); experiment: Gal4-FXR / UAS luciferase cotransfection assay; assay type: cell-based; conditions: Gal4 chimeric cotransfection
T1 sequence (Q96RI1 262-486 limits assumed): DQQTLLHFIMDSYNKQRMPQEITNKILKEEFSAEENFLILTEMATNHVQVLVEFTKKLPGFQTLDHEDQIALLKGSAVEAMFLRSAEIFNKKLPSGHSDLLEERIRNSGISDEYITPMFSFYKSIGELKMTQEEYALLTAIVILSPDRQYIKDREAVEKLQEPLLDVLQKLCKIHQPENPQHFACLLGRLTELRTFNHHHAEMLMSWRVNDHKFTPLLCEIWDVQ
Protocol: Cotransfection assays were performed as previously described in HEK293 cells (Gal4 cotransfection assay or IL-17 luciferase reporter)[8]. HEK293 and the mouse lymphoma EL4 (ATCC) cells were maintained in DMEM supplemented with 10% FBS plus antibiotics (penicillin and streptomycin; Invitrogen).

[3] = target: T2, RORα (Homo sapiens, UniProt P35398); experiment: IL-17 promoter luciferase reporter with full-length RORα; assay type: cell-based
T2 sequence (P35398 1-523): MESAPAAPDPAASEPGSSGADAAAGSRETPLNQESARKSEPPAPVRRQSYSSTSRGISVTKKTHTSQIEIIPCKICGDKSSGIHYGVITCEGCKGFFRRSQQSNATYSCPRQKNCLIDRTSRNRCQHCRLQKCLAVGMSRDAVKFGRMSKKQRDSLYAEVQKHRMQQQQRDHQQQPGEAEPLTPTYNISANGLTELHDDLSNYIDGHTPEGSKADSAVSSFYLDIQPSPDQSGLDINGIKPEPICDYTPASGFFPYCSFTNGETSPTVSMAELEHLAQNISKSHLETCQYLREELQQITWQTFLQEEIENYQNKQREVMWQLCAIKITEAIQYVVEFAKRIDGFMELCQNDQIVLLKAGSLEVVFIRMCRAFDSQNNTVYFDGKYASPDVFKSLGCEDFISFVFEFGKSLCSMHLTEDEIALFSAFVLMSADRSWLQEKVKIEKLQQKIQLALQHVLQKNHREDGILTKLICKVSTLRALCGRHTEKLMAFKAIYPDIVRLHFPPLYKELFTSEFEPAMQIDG
Excerpt: Since RORα and RORγ are critical regulators of IL-17 gene expression, we examined whether SR1555 would affect RORα and RORγ-dependent regulation of an IL-17 promoter driven luciferase reporter construct. HEK293 cells were transiently transfected with an IL-17 reporter, either full-length RORα or RORγ, and treated with an increasing concentration of SR1555[8]. In a dose dependent manner, SR1555 suppressed IL-17 promoter driven activity by RORγ but not RORα, further confirming that SR1555 is indeed a RORγ-specific inverse agonist (FIG. 1d). Finally, using EL4 cells, a murine thymoma which endogenously express RORα, RORγ t, and IL-17A, we examined whether SR1555 affected endogenous IL-17 gene expression. EL4 cells were treated with DMSO or SR1555 for 24 hours and analyzed for Il17a gene expression by quantitative real-time PCR.
Cotransfection assays were performed as previously described in HEK293 cells (Gal4 cotransfection assay or IL-17 luciferase reporter)[8]. […]
HEK293 cells were maintained in Dulbecco's modified Eagle's medium (DMEM) supplemented with 10% fetal bovine serum at 37° C. under 5% CO2. […] The luciferase levels were assayed following additional 20 hour incubation by one-step addition of BriteLite Plus (Perkin Elmer) and read using an Envision (Perkin Elmer). […]

[4] = target: T3, LXR (Homo sapiens, UniProt Q13133); experiment: Gal4-LXRα / UAS luciferase cotransfection assay; assay type: cell-based
T3 sequence (Q13133 209-447 limits assumed): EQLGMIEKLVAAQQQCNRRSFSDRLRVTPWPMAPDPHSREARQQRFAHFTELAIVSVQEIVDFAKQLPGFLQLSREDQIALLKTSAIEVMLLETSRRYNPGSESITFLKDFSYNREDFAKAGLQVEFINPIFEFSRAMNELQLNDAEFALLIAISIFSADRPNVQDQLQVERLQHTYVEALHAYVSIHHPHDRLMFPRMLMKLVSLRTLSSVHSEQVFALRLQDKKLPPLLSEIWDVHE

OC(c1ccc(-c2ccc(CN3CCN(Cc4ccncc4)CC3)cc2)c(F)c1)(C(F)(F)F)C(F)(F)F [SR2211, 1,1,1,3,3,3-hexafluoro-2-(2-fluoro-4′-((4-(pyridin-4-ylmethyl)piperazin-1-yl)methyl)-[1,1′-biphenyl]-4-yl)propan-2-ol]
T regulatory cell proliferation [1]: does not alter T regulatory cell proliferation | effect on transcriptional activity of FXR [2]: no effect on the transcriptional activity of FXR | IL-17 promoter driven activity by RORα [3]: did not alter the transcription driven by the Il17 promoter | right shift of EC50 on LXRα [4]: more than 100 fold | effect on LXR activity ([4]; Gal4 chimeric cotransfection): minimal activation of LXRα | activation of LXRα as compared to T1317 ([4]; highest concentration tested): less than 5%
